Test results: ChEMBL document CHEMBL1131310 (J Med Chem, 1998)
Several values for one entry are separate records, joined by “and”; a condition that tells them apart may be missing. Identical values can stand only once.

Legend:
Gallus gallus = species on record: Gallus gallus; assay: The compound was evaluated for neurite outgrowth from chick dorsal root ganglia; type: functional
[1] = molecular target: Peptidyl-prolyl cis-trans isomerase FKBP1A (Homo sapiens, UniProt P62942); assay: The compound was tested for binding affinity against rotamase
Sequence of Peptidyl-prolyl cis-trans isomerase FKBP1A (P62942 whole entry): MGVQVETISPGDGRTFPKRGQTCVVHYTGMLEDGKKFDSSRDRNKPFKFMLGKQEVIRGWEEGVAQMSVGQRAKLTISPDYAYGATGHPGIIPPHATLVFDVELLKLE

Structure (SMILES)	ED50 (Gallus gallus)	Ki [1]
CCC(C)(C)C(=O)C(=O)N1CCCC[C@H]1C(=O)O[C@H](CCc1ccccc1)c1ccccc1	0.3 nM	
CCC(C)(C)C(=O)C(=O)N1CCCC[C@H]1C(=O)OCCCc1cccnc1	8.5 nM	165 nM
CCC(C)(C)C(=O)C(=O)N1CCCC[C@H]1C(=O)OCCCc1ccccc1	300 nM	250 nM and 110 nM
CCC(C)(C)C(=O)C(=O)N1CCC[C@H]1C(=O)OCCCc1ccccc1	53 nM	
CCC(C)(C)C(=O)C(=O)N1CCC[C@H]1C(=O)OCCCc1cccnc1 [GPI-1046]	0.05 nM	
